Reference: ChEMBL document CHEMBL5042532, “Discovery of N-(4-(Benzyloxy)-phenyl)-sulfonamide Derivatives as Novel Antagonists of the Human Androgen Receptor Targeting the Activation Function 2” (J Med Chem, 2022)

What was measured:
NIH3T3 = test: Cytotoxicity against mouse NIH3T3 cells assessed as reduction in cell viability at 100 uM incubated for 4 hrs by MTT assay; assay type: toxicity, cell-based; conditions: nih3t3, 4 h
Androgen receptor = target: T1, Androgen receptor (Homo sapiens, UniProt P10275); test: Antagonist activity against human androgen receptor expressed in human LNCap cells trasfected with ARR2PB-eGFP cells incubated for 3 days by fluorescence based AR transcription assay; assay type: cell-based
T1 sequence (P10275 whole entry): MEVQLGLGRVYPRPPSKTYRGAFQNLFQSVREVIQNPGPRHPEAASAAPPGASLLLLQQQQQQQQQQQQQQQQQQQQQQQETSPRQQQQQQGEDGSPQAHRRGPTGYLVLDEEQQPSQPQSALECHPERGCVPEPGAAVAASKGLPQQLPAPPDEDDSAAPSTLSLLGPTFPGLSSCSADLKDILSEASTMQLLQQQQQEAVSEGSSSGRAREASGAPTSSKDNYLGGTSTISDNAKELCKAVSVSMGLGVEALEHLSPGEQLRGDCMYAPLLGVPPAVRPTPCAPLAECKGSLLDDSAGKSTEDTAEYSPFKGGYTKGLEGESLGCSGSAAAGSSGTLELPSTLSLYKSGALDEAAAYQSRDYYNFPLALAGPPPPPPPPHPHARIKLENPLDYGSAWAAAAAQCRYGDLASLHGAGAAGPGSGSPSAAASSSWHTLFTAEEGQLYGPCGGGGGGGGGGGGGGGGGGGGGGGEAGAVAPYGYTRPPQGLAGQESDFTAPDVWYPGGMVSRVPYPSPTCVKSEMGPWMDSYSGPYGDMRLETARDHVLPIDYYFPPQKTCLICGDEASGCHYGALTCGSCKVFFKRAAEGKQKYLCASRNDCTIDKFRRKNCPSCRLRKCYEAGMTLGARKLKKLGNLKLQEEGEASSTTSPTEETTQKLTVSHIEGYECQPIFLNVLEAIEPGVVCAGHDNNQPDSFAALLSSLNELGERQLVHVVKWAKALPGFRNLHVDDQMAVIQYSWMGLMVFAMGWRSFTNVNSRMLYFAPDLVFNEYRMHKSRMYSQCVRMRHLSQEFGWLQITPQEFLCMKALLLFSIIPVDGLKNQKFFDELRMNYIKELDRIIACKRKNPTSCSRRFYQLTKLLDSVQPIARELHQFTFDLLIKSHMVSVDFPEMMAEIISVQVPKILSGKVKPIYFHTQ

[1] = Clearance in CB17-SCID mouse mouse at 50 mg/kg, iv; assay type: ADME, organism-based; conditions: in vivo
[2] = Half life in CB17-SCID mouse mouse at 50 mg/kg, iv; assay type: ADME, organism-based; conditions: in vivo
[3] = Toxicity in CB17 SCID mouse xenografted with human LNCaP cells assessed as decrease in body weight at 2.5 mg/kg,IT(Intratumoral) administered once in every week for 25 days […]; assay type: organism-based; conditions: in vivo, other, 600 h, time 25 day
[4] = Volume of distribution in CB17-SCID mouse mouse at 50 mg/kg, iv; assay type: ADME, organism-based; conditions: in vivo
[5] = Cmax in CB17-SCID mouse mouse at 50 mg/kg, iv; assay type: ADME, organism-based; set-up: route intravenous, dose 50 mg/kg; conditions: in vivo
[6] = Inhibition of prostate specific antigen expression in human LNCaP cells expressing ARR2PB-eGFP by immunoassay

In the case of `O=S(=O)(Nc1ccc(OCc2ccccc2)cc1)c1ccccc1`, the Activity (NIH3T3) is reported as “Toxic”.

With `CC(=O)N1c2cc(S(=O)(=O)Nc3ccc(OCc4ccccc4)cc3)c(Br)cc2CC1C` (stereo not drawn) the IC50 (Androgen receptor) was > 50 µM.

With `CC1NC(=O)NC(=O)C1S(=O)(=O)Nc1ccc(OCc2ccccc2)cc1` (stereo not drawn) the IC50 (Androgen receptor) was > 50 µM.

In the case of `O=S(=O)(Cc1ccc(Cl)cc1)Nc1ccc(OCc2ccccc2)cc1`, the IC50 (Androgen receptor) is reported as > 50 µM.

For `Cc1ccc(S(=O)(=O)Nc2ccc(OCc3ccccc3)cc2)cc1`, the IC50 (Androgen receptor) was 11.5 µM.

For `Cc1cc(C)c(S(=O)(=O)Nc2ccc(OCc3ccccc3)cc2)c(C)c1`, the IC50 (Androgen receptor) was > 50 µM.

For `O=[N+]([O-])c1ccc(CS(=O)(=O)Nc2ccc(OCc3ccccc3)cc2)cc1`, the IC50 (Androgen receptor) was > 50 µM.

For `CC(C)CS(=O)(=O)Nc1ccc(OCc2ccccc2)cc1`, the IC50 (Androgen receptor) was > 50 µM.

For `CC(=O)Nc1ccc(S(=O)(=O)Nc2ccc(OCc3ccccc3)cc2)cc1`, the IC50 (Androgen receptor) was > 50 µM.

In the case of `CN(C)S(=O)(=O)Nc1ccc(OCc2ccccc2)cc1`, the clearance [1] is reported as 366 mL/min/kg, the half-life [2] is reported as 91.2 min and the Activity [3] is reported as “Toxic”. The Activity (NIH3T3) was “Non-Toxic”, the Vd [4] was 2.99 L/kg and the Cmax [5] was 890 ng/mL.

For `CCOC(=O)c1cn[nH]c1S(=O)(=O)Nc1ccc(OCc2ccccc2)cc1`, the IC50 (Androgen receptor) was > 50 µM.

In the case of `COC(=O)c1sccc1S(=O)(=O)Nc1ccc(OCc2ccccc2)cc1`, the IC50 (Androgen receptor) is reported as > 50 µM.

In the case of `CC(=O)c1ccc(S(=O)(=O)Nc2ccc(OCc3ccccc3)cc2)cc1`, the IC50 (Androgen receptor) is reported as > 50 µM.

In the case of `Cn1c(=O)n(C)c2cc(S(=O)(=O)Nc3ccc(OCc4ccccc4)cc3)ccc21`, the IC50 (Androgen receptor) is reported as > 50 µM.

For `O=S(=O)(Cc1ccccc1)Nc1ccc(OCc2ccccc2)cc1`, the Activity (NIH3T3) was “Non-Toxic”.

With `COc1ccc(CS(=O)(=O)Nc2ccc(OCc3ccccc3)cc2)cc1` the IC50 (Androgen receptor) was > 50 µM.

For `CNC(=O)c1ccc(N2C(=S)N(c3ccc(C#N)c(C(F)(F)F)c3)C(=O)C2(C)C)cc1F` [ENZALUTAMIDE], the IC50 [6] was 100 nM and the Activity [3] was “Toxic”.
